This note sets out measurements from patent publication US8822486B2, “Spiropiperidine compounds” (Eli Lilly and Company, priority 2009, dated 2014).

One test has as its target T1, PPARγ (Homo sapiens, UniProt P37231).
T1 sequence (P37231 1-505): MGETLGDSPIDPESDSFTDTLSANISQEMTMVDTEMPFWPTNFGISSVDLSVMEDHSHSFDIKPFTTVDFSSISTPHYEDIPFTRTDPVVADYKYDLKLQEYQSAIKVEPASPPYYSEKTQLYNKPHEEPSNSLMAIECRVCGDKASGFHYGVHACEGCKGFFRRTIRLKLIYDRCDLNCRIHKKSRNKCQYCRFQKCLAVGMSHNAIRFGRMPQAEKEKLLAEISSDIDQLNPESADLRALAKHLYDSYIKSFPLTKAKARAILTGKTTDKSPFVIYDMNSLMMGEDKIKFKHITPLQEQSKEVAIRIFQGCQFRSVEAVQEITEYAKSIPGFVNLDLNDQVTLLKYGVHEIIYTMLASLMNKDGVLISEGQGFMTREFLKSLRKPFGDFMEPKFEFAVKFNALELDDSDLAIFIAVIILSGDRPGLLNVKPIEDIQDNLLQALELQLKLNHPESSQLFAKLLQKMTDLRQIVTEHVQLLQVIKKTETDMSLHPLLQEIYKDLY
T1 sequence (P19793 1-462 partner): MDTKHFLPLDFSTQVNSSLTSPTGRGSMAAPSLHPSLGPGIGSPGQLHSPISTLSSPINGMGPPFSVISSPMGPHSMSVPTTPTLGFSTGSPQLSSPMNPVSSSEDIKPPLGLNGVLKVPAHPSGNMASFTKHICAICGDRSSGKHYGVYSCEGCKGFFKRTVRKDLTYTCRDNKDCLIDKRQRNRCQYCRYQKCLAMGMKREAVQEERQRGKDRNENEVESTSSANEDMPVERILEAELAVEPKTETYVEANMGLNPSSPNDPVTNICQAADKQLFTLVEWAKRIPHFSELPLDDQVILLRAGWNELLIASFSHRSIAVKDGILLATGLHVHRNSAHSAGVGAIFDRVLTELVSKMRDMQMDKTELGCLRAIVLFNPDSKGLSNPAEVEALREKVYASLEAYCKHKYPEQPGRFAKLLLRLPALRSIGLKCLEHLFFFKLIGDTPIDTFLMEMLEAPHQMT
Nature of the test: PPARγ binding assay (SPA). Also noted: made in house; host or cells: HEK293 (cell lysates). The conditions noted are these: concentrations up to 10 μM. As for the experimental part:
(§1) Because GPR40 is known to be activated by ligands to PPARγ exemplified compounds are examined in PPARα, PPARδ, and PPARγ binding and functional assays to determine the selectivity of exemplified compounds for GPR40. Compounds exemplified herein are tested essentially as described below for PPAR binding and generally have binding values greater than 1000 nM with 10 μM concentrations of test compound and are thus considered negative for PPAR activity.
(§2) Binding affinities of compounds for the PPAR α, δ, and γ receptors are assessed using Scintillation Proximity Assay (SPA) technology. Biotinylated oligonucleotide Direct Repeat 2 (DR2) is used for binding the receptors to Yttrium silicate streptavidin-coated SPA beads. […] Non-specific binding is determined in the presence of 10,000 nM of the unlabeled PPAR α/δ dual agonist reference compound for the alpha and delta receptor assays and the PPARγ agonist reference compound for the gamma receptor assay. The binding reaction (100 μl per well in a 96 well [Costar 3632] plate) is incubated for 10 h and counted disintegration per minutes (dpm) on a Wallac Microbeta. Receptor binding affinity (IC50) for the compounds is determined by fitting an 11 point concentration-response curve with a 4-paramater logistic equation. K, is determined from the IC50 using the Cheng-Prussoff equation and Kd determined by saturation binding. […]

Test [1] deals with mouse insulinoma cell line Min6. Nature of the test: Glucose Dependent Insulin Secretion (GDIS) assay in Min6 cells. The conditions noted are these: 1 μM plus 25 mM glucose compared to 25 mM glucose alone; 2 h incubation. It counts as cell-based. Here is the method:
Because activation of GPR40 is known to result in insulin secretion which is dependent on high glucose concentrations, two separate assay systems (insulinoma cell line and primary rodent islets) are developed to further characterize compounds that are known to increase intracellular calcium in the GPR40 primary assay discussed above.
GDIS assays are performed using the mouse insulinoma cell line Min6. Min6 cells are maintained in Dulbecco's Modified Eagle's Medium (DMEM) containing non-essential amino acids, 10% FBS, […] 2-mercaptoethanol and 1% penicillin and streptomycin at 37° C. plus 5% CO2 On the day of the experiment, the cells are washed twice with 200 μl of pre-warmed Krebs-ringer buffer without glucose. Addition of 200 μL of pre-warmed Krebs-ringer buffer containing 2.5 mM glucose is used to starve the cells followed by the addition of compounds in the presence of a high concentration of glucose (25 mM). The plate is incubated at 37° C. for 2 hours. At the end of the 2 h incubation, the supernatant is gently transferred into a Millipore filter plate and spun at 200 g (gravitational force) for 3 minutes. Insulin is assayed using a Mercodia Insulin estimation kit.

The next test addresses T2, PPARδ (Homo sapiens, UniProt Q03181).
T2 construct: made in house; host or cells: HEK293 (cell lysates)
T2 sequence (Q03181 1-441): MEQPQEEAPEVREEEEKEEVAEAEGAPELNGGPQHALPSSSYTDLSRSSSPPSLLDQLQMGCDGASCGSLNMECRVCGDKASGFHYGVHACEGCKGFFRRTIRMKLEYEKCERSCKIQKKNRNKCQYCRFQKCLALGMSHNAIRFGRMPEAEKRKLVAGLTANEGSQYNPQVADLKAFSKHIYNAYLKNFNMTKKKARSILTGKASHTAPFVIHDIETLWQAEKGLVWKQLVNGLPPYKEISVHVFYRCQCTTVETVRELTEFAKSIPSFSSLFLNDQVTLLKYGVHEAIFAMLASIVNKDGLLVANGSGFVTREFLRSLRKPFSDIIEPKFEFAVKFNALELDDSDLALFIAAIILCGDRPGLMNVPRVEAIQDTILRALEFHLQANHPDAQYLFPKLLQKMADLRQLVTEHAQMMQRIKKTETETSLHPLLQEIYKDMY
T2 sequence (P19793 1-462 partner): T1 sequence (P19793 1-462 partner)
Description: PPARδ binding assay (SPA). The settings on record: concentrations up to 10 μM. Here is the method:
as §1, §2

As for `CC#C[C@@H](CC(=O)O)c1ccc(OCc2ccc(CN3CCC4(C=Cc5ccccc54)CC3)s2)cc1` [Example 1, (3S)-3-[4-[[5-(Spiro[indene-1,4′-piperidine]-1′-ylmethyl)-2-thienyl]methoxy]phenyl]hex-4-ynoic acid], the PPARγ binding entry at PPARγ is “no binding is detected”. In test [1], the “increase in insulin secretion” value was “two-fold increase”. For the same compound, the PPARδ binding entry on PPARδ is “no binding is detected”.
